{"source": "patent US8431706B2", "about": "“1,2,3,4-tetrahydroqinoline derivative useful for the treatment of diabetes” (Eli Lilly and Company, priority 2011, dated 2013)", "key": {"PPARγ": {"target": "T1, PPARγ (Homo sapiens, UniProt P37231)", "T1 sequence (P37231 1-505)": "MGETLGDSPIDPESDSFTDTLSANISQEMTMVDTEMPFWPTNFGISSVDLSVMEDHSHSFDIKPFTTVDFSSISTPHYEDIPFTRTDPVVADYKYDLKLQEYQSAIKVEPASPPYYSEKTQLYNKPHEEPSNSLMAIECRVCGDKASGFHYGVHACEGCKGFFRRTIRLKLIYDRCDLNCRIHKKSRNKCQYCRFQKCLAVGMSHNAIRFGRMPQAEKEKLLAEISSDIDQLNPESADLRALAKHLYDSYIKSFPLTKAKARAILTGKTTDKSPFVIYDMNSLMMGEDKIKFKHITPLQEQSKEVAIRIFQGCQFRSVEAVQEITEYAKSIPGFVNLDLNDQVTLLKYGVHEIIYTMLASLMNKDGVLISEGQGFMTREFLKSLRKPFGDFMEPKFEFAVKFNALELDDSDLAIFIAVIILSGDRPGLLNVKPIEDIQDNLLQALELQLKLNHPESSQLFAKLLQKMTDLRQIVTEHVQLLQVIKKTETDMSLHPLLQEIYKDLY", "T1 sequence (P19793 1-462 partner)": "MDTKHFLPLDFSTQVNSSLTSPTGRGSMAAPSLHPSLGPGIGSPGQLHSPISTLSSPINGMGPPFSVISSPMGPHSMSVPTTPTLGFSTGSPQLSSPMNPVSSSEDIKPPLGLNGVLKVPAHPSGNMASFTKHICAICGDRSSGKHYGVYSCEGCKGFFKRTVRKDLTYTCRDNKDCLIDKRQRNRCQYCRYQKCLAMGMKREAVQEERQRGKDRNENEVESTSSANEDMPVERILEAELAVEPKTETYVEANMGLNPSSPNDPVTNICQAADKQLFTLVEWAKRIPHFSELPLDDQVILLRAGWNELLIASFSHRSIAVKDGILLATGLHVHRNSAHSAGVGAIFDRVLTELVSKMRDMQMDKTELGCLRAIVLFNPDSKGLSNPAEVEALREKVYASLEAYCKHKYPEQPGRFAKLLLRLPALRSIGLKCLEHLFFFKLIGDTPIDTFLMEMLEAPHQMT", "test": "PPARγ reporter functional assay in CV1 cells", "type": "cell-based", "details": "examined up to 10 μM; luciferase reporter; 24 hours", "text": "Gal4 PPARα, Gal4 PPARδ, and PPARγ reporter functional assays are also used to monitor the selectivity of the exemplified compound. CV1 cells, which are derived from the renal tissue of an African green monkey, are transfected with various receptor and reporter plasmids using Fugene. For the Gal4 PPARα and PPARδ assays, a reporter plasmid containing five tandem copies of the yeast transcription protein Gal4 response element, cloned upstream of a firefly luciferase gene driven by the major late promoter of adenovirus, is transfected together with a Simian Virus 40 (SV40) driven plasmid constitutively expressing a hybrid protein containing the Gal4 DNA binding domain (DBD), and either the PPARα or PPARδ ligand binding. For the PPARγ assay, plasmids encoding PPARγ and RXRα, both driven by a cytomegalovirus (CMV) promoter are transfected together with a plasmid containing luciferase reporter cDNA driven by the TK promoter and a receptor response element (2×PPRE). Cells are transfected in T225 cm^2 cell culture flasks in DMEM media with 5% charcoal-stripped FBS. […] After 24 hours incubation with the compound, cells are lysed and luciferase activity is determined as a measure of receptor activation by luminescence. […] The maximum percent stimulation is determined versus maximum stimulation obtained with 10 μM of an appropriate PPAR agonist reference compound. […]"}, "Male Balb/c mice": {"system": "Male Balb/c mice", "test": "Intraperitoneal Glucose Tolerance Test (IPGTT)", "type": "in vivo, mouse", "method": "To examine the ability of exemplified the compound to activate GPR40 in-vivo resulting in anti-diabetic efficacy, i.e. reduction in plasma glucose levels, a 4-day intraperitoneal glucose tolerance test (ipGTT) study is completed, and the data is shown for the compound tested below.\nMale Balb/c (Albino mice) mice (8-9 weeks of age) are single housed, and fed with normal rodent chow diet and water ad libitum. Animals are weighed; randomized by body weight; and their daily body weights are recorded Animals are dosed once per day orally for three days using a formulation carrying methylcellulose and tween-80. On the night before Day 4, animals are fasted overnight. On the morning of Day 4, animals are dosed orally with compound or vehicle alone 60 minutes prior to the glucose tolerance test (glucose 2 g/kg, i.p.). Blood glucose levels are determined from tail bleeds taken at 0, 3, 7, 15, 30, and 60 min after glucose challenge. The blood glucose excursion profile from t=0 to t=60 min is used to integrate an area under the curve (AUC) for each treatment. Percent lowering in glucose is calculated from the AUC data of the compound with respect to the AUC of vehicle group. The test compound is orally administered at 0.3, 1.0, 3.0, 10, or 30 mg/kg, and a positive control (3-[4-(2-methyl-benzyloxy)-phenyl]-hex-4-ynoic acid, see WO2005086661.) is administered at 10 mg/kg. […] Glucose levels are lowered at the 15, 30, and 60 minute time points for the positive control. The ED50 for this compound based on AUCs for glucose lowering is 1.0 mg/kg."}}}
{"smiles": "CC#C[C@@H](CC(=O)O)c1ccc(OCc2ccc(CN3CCCc4cccc(OC)c43)s2)cc1", "note": "[Example 1, (3S)-3-[4-[[5-[(8-Methoxy-3,4-dihydro-2H-quinolin-1-yl)methyl]-2-thienyl]methoxy]phenyl]hex-4-ynoic acid]", "values": [{"measurement": "functional activation of PPARγ", "setting": "PPARγ", "value": "No functional activation"}, {"measurement": "Glucose levels compared to vehicle control, 30 and 60 minute time points", "setting": "Male Balb/c mice; 1.0, 3.0, 10 and 30 mg/kg oral doses", "value": "significantly lowered"}, {"measurement": "Glucose levels compared to vehicle control, 15 minute time point", "setting": "Male Balb/c mice; 3, 10 and 30 mg/kg oral doses", "value": "significantly lowered"}, {"measurement": "ED50", "setting": "Male Balb/c mice; Mus musculus, oral, once per day, 4 days, glucose 2 g/kg i.p., AUC t=0 to 60 min, read-out: ED50 based on AUCs for glucose lowering", "value": 1, "unit": "mg/kg"}]}
